Source: PMC8163982, “Partial agonism improves the anti-hyperglycaemic efficacy of an oxyntomodulin-derived GLP-1R/GCGR co-agonist” (Molecular Metabolism, 2021)
Where a SMILES comes first, the peptide text is derived from it. [ ]: non-standard residue; d: D form. Aib = CC(C)(N)C(=O)O

Experiments:
Format in all cases: cell-based
GLP-1R [1] = molecular target: T1, GLP-1R (Homo sapiens, UniProt P43220); experiment: NanoBiT β-arrestin-2 recruitment to GLP-1R-SmBiT in HEK293T cells; conditions: SRB103 pair, mean ± SEM, n = 6; for Emax: HEK-293T, normalised to full agonist response, read-out: GLP-1R βarr2 (HEK293T) Emax; for EC50: 3-parameter fit, read-out: GLP-1R βarr2 (HEK293T) pEC50 (converted)
Protocol: The assay was performed as previously described. […] (gifts from Professor Nevin Lambert, Medical College of Georgia) or 0.05 μg of GLP-1R-SmBiT and 0.05 μg of LgBiT-β-arrestin-2 (Promega) plus 0.9 μg of pcDNA3.1 for 24 h. The cells were detached with EDTA, resuspended in HBSS, and furimazine (Promega) was added at a 1:50 dilution from the manufacturer's pre-prepared stock. After dispensing into 96-well white plates, a baseline read of the luminescent signals was serially recorded for 5 min using a FlexStation 3 instrument at 37 °C before the indicated concentration of ligand was added, after which the signals were repeatedly recorded for 30 min. […] Bias was calculated using two approaches. First, the log max/EC50 method was used, with the ratio of Emax to EC50 from 3-parameter fits for each ligand used to quantify agonism. After log10 transformation, responses were expressed relative to the reference agonist on a per assay basis to obtain Δlog(Emax/EC50) for each pathway. Pathway-specific values were then expressed relative to each other to obtain ΔΔlog(Emax/EC50), that is, the log bias factor. Second, a method derived from kinetic curve fitting was used. Here, kinetic responses for a single maximal agonist concentration were normalised at each time point to the vehicle response prior to curve fitting. Mini-Gs responses were fitted using the one-phase exponential association equation in Prism 8.0. β-arrestin-2 responses were fitted using the biexponential equation described in [29]. […] Pathway-specific values were then expressed relative to each other to obtain ΔΔlog kτ , that is, the log bias factor.

SNAP-GLP-1R = molecular target: T2, SNAP-GLP-1R (Homo sapiens, UniProt P43220); experiment: High content imaging assay for SNAP-GLP-1R internalisation; conditions: high content analysis, mean ± SEM, n = 4, read-out: HCA assay (HEK293-SNAP-GLP-1R) pEC50 (converted)
T2 construct: expressed in transfected cells
Protocol: The assay was adapted from a previously described method. HEK293T cells were seeded in black clear-bottom plates coated with 0.1% poly-D-lysine and assayed 24 h after transfection with SNAP-tagged GLP-1R or GCGR plasmid DNA (0.1 μg per well). The cells were labelled with the cleavable SNAP-tag probe BG-S-S-549 (a gift from New England Biolabs) in complete medium for 30 min at room temperature. After washing, fresh serum-free medium ± agonist was added. At the end of incubation, the medium was removed and the wells were treated with for 5 min at 4 °C with Mesna (100 mM in alkaline TNE buffer at a pH of 8.6) to remove BG-S-S-549 bound to residual surface receptors without affecting the internalised receptor population or with alkaline TNE buffer alone. After washing, phase contrast and epifluorescence cellular imaging at 20× magnification was performed, followed by processing as previously described to quantify the amount of internalised receptor from the fluorescence intensity readings.

GCGR [2] = molecular target: T3, GCGR (Homo sapiens, UniProt P47871); experiment: NanoBiT β-arrestin-2 recruitment to GCGR-SmBiT in HEK293T cells; set-up: expressed in transfected cells; host or cells: HEK293T; conditions: SRB103 pair, mean ± SEM, n = 6; for Emax: HEK-293T, normalised to full agonist response, read-out: GCGR βarr2 (HEK293T) Emax; for EC50: 3-parameter fit, read-out: GCGR βarr2 (HEK293T) pEC50 (converted)
[3] = tested on: primary mouse hepatocytes; experiment: cAMP accumulation in primary mouse hepatocytes; conditions: expressed relative to 10 μM forskolin response, mean ± SEM, n = 4; for cAMP 10 min (primary hepatocytes) Emax: 100 μM IBMX; for cAMP 16 h (primary hepatocytes) Emax: 100 μM IBMX for final 10 min
Protocol: Hepatocytes from adult male C57Bl/6J mice were isolated using collagenase perfusion. After filtering and washing, the cells were used to directly assay cAMP responses as described in the next section.
(§1) PathHunter cells were stimulated with the indicated concentration of agonist for 30 min at 37 °C in serum-free medium without phosphodiesterase inhibitors. INS-1 832/3 cells were stimulated with the indicated concentration of agonist for 10 min at 37 °C in serum-free medium with 100 μM of 3-isobutyl-1-methylxanthine (IBMX). Primary dispersed mouse islet cells prepared by triturating intact islets in 0.05% trypsin/EDTA for 3 min at 37 °C were stimulated with the indicated concentration of agonist for 5 min at 37 °C in serum-free medium with 11 mM of glucose and 500 μM of IBMX. Primary mouse hepatocytes were stimulated in serum-free medium with 100 μM of IBMX for 10 min or 16 h in serum-free medium with 100 μM of IBMX added for the final 10 min of incubation. Huh7-GCGR cells were stimulated in serum-free medium without phosphodiesterase inhibitors for 10 min or for 16 h in serum-free medium. Where relevant, forskolin (10 μM) was added as a positive or normalisation control. At the end of each incubation, cAMP was then assayed by HTRF (Cisbio cAMP Dynamic 2) and concentration-response curves were constructed with 3-parameter curve fitting using Prism 8.0.

GLP-1R [4] = molecular target: T1, GLP-1R; experiment: cAMP production (HTRF) in PathHunter CHO-K1 cells expressing GLP-1R; set-up: host or cells: PathHunter CHO-K1-βarr2-EA; conditions: 30 min, mean ± SEM, n = 6; for EC50: 37 °C, serum-free medium, no phosphodiesterase inhibitors, read-out: GLP-1R cAMP (CHO–K1) pEC50 (converted); for Emax: CHO-K1, normalised to globally fitted maximum response
Protocol: HEK293T cells were maintained in DMEM supplemented with 10% FBS and 1% penicillin/streptomycin. PathHunter CHO–K1-βarr2-EA cells stably expressing human GLP-1R, GCGR, or GIPR and PathHunter CHO–K1-βarr1-EA cells stably expressing GCGR were obtained from DiscoverX and maintained in Ham's F12 medium with 10% FBS and 1% penicillin/streptomycin. Stable HEK293-SNAP-GLP-1R cells were maintained in DMEM supplemented with 10% FBS, 1% penicillin/streptomycin, and 1 mg/ml of G418. INS-1 832/3 cells, a gift from Professor Chris Newgard (Duke University), were maintained in RPMI with 11 mM of glucose supplemented with 10% FBS, 10 mM of HEPES, 1 mM of pyruvate, 50 μM of β-mercaptoethanol, and 1% penicillin/streptomycin. Huh7 cells stably expressing human GCGR (Huh7-GCGR) were maintained in DMEM supplemented with 10% FBS, 1 mg/ml of G418, and 1% penicillin/streptomycin.
as §1

GCGR [5] = molecular target: T3, GCGR; experiment: NanoBiT mini-Gs recruitment to GCGR-SmBiT in HEK293T cells; set-up: expressed in transfected cells; host or cells: HEK293T; conditions: SRB103 pair, mean ± SEM, n = 6; for Emax: HEK-293T, normalised to full agonist response, read-out: GCGR mini-Gs (HEK293T) Emax; for EC50: 3-parameter fit, read-out: GCGR mini-Gs (HEK293T) pEC50 (converted)

T3 sequence (P47871 26-477): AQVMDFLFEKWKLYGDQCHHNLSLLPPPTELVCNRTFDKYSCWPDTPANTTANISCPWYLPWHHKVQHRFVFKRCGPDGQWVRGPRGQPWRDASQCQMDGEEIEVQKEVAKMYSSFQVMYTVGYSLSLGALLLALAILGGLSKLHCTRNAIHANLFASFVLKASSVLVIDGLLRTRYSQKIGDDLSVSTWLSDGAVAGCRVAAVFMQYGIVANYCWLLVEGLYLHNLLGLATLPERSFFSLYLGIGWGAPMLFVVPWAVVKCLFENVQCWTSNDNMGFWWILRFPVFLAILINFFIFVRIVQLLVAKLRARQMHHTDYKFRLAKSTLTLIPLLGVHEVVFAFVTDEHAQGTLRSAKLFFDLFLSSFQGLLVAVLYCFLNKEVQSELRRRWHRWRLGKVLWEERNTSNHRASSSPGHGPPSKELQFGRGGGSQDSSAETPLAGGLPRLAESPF
T1 sequence (P43220 24-463): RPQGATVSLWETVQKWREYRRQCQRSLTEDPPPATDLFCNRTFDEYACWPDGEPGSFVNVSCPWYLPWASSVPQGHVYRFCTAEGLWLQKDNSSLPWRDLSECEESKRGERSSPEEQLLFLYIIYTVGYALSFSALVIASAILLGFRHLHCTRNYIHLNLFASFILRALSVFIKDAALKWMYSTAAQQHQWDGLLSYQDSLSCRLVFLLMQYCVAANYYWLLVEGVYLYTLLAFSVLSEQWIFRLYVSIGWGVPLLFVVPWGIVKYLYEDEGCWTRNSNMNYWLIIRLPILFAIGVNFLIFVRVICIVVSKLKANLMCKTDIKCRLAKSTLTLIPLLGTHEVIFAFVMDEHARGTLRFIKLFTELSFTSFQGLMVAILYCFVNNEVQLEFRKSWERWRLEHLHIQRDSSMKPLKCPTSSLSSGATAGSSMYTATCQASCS
T2 sequence (P43220 24-463): as above

SMILES	Emax (GLP-1R [1])	EC50 (GLP-1R [1])	EC50 (SNAP-GLP-1R)	Emax (GCGR [2])	EC50 (GCGR [2])	cAMP 10 min (primary hepatocytes) Emax [3]	cAMP 16 h (primary hepatocytes) Emax [3]	EC50 (GLP-1R [4])	Emax (GLP-1R [4])	Emax (GCGR [5])	EC50 (GCGR [5])
CC[C@H](C)[C@H](NC(=O)[C@H](Cc1ccccc1)NC(=O)[C@H](CCC(=O)O)NC(=O)[C@H](CCC(N)=O)NC(=O)[C@H](C)NC(=O)[C@H](CCCNC(=N)N)NC(=O)[C@H](CCCCN)NC(=O)[C@H](C)NC(=O)[C@H](CC(=O)O)NC(=O)[C@H](CC(C)C)NC(=O)[C@H](Cc1ccc(O)cc1)NC(=O)[C@H](CCCCN)NC(=O)[C@H](CO)NC(=O)[C@H](Cc1ccc(O)cc1)NC(=O)[C@H](CC(=O)O)NC(=O)[C@H](CO)NC(=O)[C@@H](NC(=O)[C@H](Cc1ccccc1)NC(=O)[C@@H](NC(=O)CNC(=O)[C@H](Cc1c[nH]cn1)NC(=O)C(C)(C)NC(=O)[C@@H](N)Cc1c[nH]cn1)[C@@H](C)O)[C@@H](C)O)C(=O)N[C@@H](CCC(=O)O)C(=O)N[C@@H](Cc1c[nH]c2ccccc12)C(=O)N[C@@H](CC(C)C)C(=O)N[C@@H](CC(C)C)C(=O)N[C@@H](C)C(=O)NCC(=O)N[C@@H](Cc1c[nH]cn1)C(=O)N[C@@H](Cc1c[nH]cn1)C(=O)N[C@@H](Cc1c[nH]cn1)C(=O)N[C@@H](Cc1c[nH]cn1)C(=O)N[C@@H](Cc1c[nH]cn1)C(=O)N1CCC[C@H]1C(=O)N[C@@H](CO)C(=O)N[C@@H](Cc1c[nH]c2ccccc12)C(=O)O [SRB103H] (H-H[Aib]HGTFTSDYSKYLDAKRAQEFIEWLLAGHHHHHPSW-OH)	100%	0.398 µM	0.00794 µM	100%	0.0316 µM	170 ± 7	206 ± 7	0.000316 µM	99 ± 4%	100%	0.00794 µM
CC[C@H](C)[C@H](NC(=O)[C@H](Cc1ccccc1)NC(=O)[C@H](CCC(=O)O)NC(=O)[C@H](CCC(N)=O)NC(=O)[C@H](C)NC(=O)[C@H](CCCNC(=N)N)NC(=O)[C@H](CCCCN)NC(=O)[C@H](C)NC(=O)[C@H](CC(=O)O)NC(=O)[C@H](CC(C)C)NC(=O)[C@H](Cc1ccc(O)cc1)NC(=O)[C@H](CCCCN)NC(=O)[C@H](CO)NC(=O)[C@H](Cc1ccc(O)cc1)NC(=O)[C@H](CC(=O)O)NC(=O)[C@H](CO)NC(=O)[C@@H](NC(=O)[C@H](Cc1ccccc1)NC(=O)[C@@H](NC(=O)CNC(=O)[C@H](CCC(N)=O)NC(=O)C(C)(C)NC(=O)[C@@H](N)Cc1c[nH]cn1)[C@@H](C)O)[C@@H](C)O)C(=O)N[C@@H](CCC(=O)O)C(=O)N[C@@H](Cc1c[nH]c2ccccc12)C(=O)N[C@@H](CC(C)C)C(=O)N[C@@H](CC(C)C)C(=O)N[C@@H](C)C(=O)NCC(=O)N[C@@H](Cc1c[nH]cn1)C(=O)N[C@@H](Cc1c[nH]cn1)C(=O)N[C@@H](Cc1c[nH]cn1)C(=O)N[C@@H](Cc1c[nH]cn1)C(=O)N[C@@H](Cc1c[nH]cn1)C(=O)N1CCC[C@H]1C(=O)N[C@@H](CO)C(=O)N[C@@H](Cc1c[nH]c2ccccc12)C(=O)O [SRB103Q] (H-H[Aib]QGTFTSDYSKYLDAKRAQEFIEWLLAGHHHHHPSW-OH)	60 ± 2%	0.2 µM	0.00251 µM	77 ± 2%	0.0501 µM	175 ± 12	200 ± 6	0.000316 µM	103 ± 2%	83 ± 1%	0.02 µM
